Positions count from the first letter of the chain named. Read-outs that look alike come from different tables or passages of the source.
Assays:
ERα LBD mutant Y537N = molecular target: T1, ERα LBD mutant Y537N (Homo sapiens, UniProt P03372, Y537N); assay: ERE-luciferase reporter gene assay in Caov2 cells, Y537N mutant receptor; assay type: cell-based; conditions: Caov2, in presence of 1 nM 17-β estradiol, 24 h
T1 construct: expressed in transfected cells; host or cells: Caov2 ovarian carcinoma cells; SKBR3 breast adenocarcinoma cells
T1 sequence (P03372 1-595 Y537N): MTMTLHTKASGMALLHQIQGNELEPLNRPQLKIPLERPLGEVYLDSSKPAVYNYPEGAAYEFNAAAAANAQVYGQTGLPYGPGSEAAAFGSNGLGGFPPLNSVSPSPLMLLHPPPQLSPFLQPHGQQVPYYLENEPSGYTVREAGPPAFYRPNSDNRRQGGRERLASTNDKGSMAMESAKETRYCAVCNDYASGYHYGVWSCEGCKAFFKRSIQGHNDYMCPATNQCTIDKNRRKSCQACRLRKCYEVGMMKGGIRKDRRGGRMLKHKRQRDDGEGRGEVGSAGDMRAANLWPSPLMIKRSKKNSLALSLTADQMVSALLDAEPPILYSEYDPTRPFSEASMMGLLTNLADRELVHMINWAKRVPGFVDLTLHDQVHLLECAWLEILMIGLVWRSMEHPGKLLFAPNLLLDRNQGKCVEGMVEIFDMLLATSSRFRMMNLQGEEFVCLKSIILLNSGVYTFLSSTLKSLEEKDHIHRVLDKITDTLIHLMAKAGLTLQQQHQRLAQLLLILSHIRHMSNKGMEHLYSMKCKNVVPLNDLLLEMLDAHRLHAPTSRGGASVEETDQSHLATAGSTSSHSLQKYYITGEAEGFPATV
Description: (§1) ExSite mutagenesis was performed using the corresponding primers as summarized in Table 1 below on a pENTR2B ERα WT construct using Pfu ultra taq polymerase. The primers were PNK phosphorylated. Following PCR amplification, the products were digested with DpnI at 37° C. for 1 hr, followed by overnight ligation at 16° C. Ligated products were transformed into DH5α bacterial cells and grown on kanamycin resistant plates. The pENTR clones were verified by sequencing and then swapped into the pcDNA-DEST vector using the Gateway system (Invitrogen) for expression analysis.
(§2) Caov2 ovarian carcinoma cells were grown in RPMI-1640 media (Gibco) supplemented with 8% Fetal Bovine Serum (FBS), Sodium Pyruvate (NaPyr) and non-essential amino acids (NEAA) and passaged every 2-3 days. SKBR3 breast adenocarcinoma cells were grown in DMEM media (Gibco) supplemented with 8% Fetal Bovine Serum (FBS), Sodium Pyruvate (NaPyr) and non-essential amino acids (NEAA) and passaged every 2-3 days. Cells were switched into a phenol-red free RPMI-1640 media supplemented with 8% charcoal stripped fetal bovine serum (CFS), NaPyr, and NEAA one day before plating for experiment. Cells were then plated in 96-well plates for experiment in the phenol red-free media an additional day before transfection.
(§3) The plots include data from five independent experiments and each value is an average of triplicates from each experiment. […]

wild-type (WT) ERα [1] = molecular target: T2, wild-type (WT) ERα (Homo sapiens, UniProt P03372); assay: ERE-luciferase reporter gene assay in SKBR3 cells, wild-type receptor; assay type: cell-based; conditions: SKBR3, in presence of 1 nM 17-β estradiol, 24 h
T2 construct: expressed in transfected cells; host or cells: Caov2 ovarian carcinoma cells; SKBR3 breast adenocarcinoma cells
T2 sequence (P03372 1-595): T1 sequence (P03372 1-595 Y537N) with N537Y
Description: as §1, §2, §3

[2] = Reported Cmax in blood at doses used in prior clinical trials; assay type: in vivo; conditions: human, read-out: Converted (M) Cmax
Text: See Maximov et al., Current ClinicalPharmacology 8(2): 135-155 (2013). […] See Assessment Report for Fablyn, 2009 (EMA). […] See Gardner et al., J Clin Pharmacol 46(1): 52-58 (2006).

wild-type (WT) ERα [3] = molecular target: T2, wild-type (WT) ERα; assay: ERE-luciferase reporter gene assay in Caov2 cells, wild-type receptor; assay type: cell-based; conditions: Caov2, in presence of 1 nM 17-β estradiol, 24 h
Description: as §1, §2, §3

ERα LBD mutant Y537C [4] = molecular target: T3, ERα LBD mutant Y537C (Homo sapiens, UniProt P03372, Y537C); assay: ERE-luciferase reporter gene assay in Caov2 cells, Y537C mutant receptor; assay type: cell-based; conditions: Caov2, in presence of 1 nM 17-β estradiol, 24 h
T3 construct: expressed in transfected cells; host or cells: Caov2 ovarian carcinoma cells; SKBR3 breast adenocarcinoma cells
T3 sequence (P03372 1-595 Y537C): T1 sequence (P03372 1-595 Y537N) with N537C
Description: as §1, §2, §3

ERα LBD mutant Y537C [5] = molecular target: T3, ERα LBD mutant Y537C; assay: ERE-luciferase reporter gene assay in SKBR3 cells, Y537C mutant receptor; assay type: cell-based; conditions: SKBR3, in presence of 1 nM 17-β estradiol, 24 h
Description: as §1, §2, §3

[6] = PEARL trial, cited from earlier work

- IC90 (ERα LBD mutant Y537N): 0.745 nM
- IC90 (wild-type (WT) ERα [1]): 3.3 nM
- Cmax ([2]; 0.5 mg dose): 9e-09 M
- Cmax ([2]; 1 mg dose): 1.55e-08 M
- IC90 (wild-type (WT) ERα [3]): 0.00668 nM
- IC90 (ERα LBD mutant Y537C [4]): 0.204 nM
- IC90 (ERα LBD mutant Y537C [5]): 5.9 nM
Structure (SMILES): Oc1ccc2c(c1)CC[C@H](c1ccccc1)[C@@H]2c1ccc(OCCN2CCCC2)cc1 [Lasofoxifene]
- risk of osteoporosis ([6]; placebo-controlled): reduce the risk of osteoporosis
- risk of breast cancer ([6]; post-menopausal women with osteoporosis): reduced the risk of breast cancer in post-menopausal women with osteoporosis
